Data as given in patent publication US20250360235A1, “RADI[…] AND METHOD FOR RADIOLABELLING” (Telix Innovations SA, priority 2024, published 2025).

Assay: Radiochemical purity by iTLC over time after radiolabelling
Assay type: physicochemical
Method: Table 1 to Table 5 show the results of various radiolabelling experiments on radiochemical purity and the chelation yield. The radiolabelling experiments in the tables are carried out as described in: • Example 1 for when the gallium-68 source is GE Liquid target generator and EZAG GalliaPharm generator; • Example 2 for when the gallium-68 source is IRE Galli Eo generator; • Example 3 for when the gallium-68 source is GE solid target generator;
However, the experiments were carried out with the amount of ascorbic acid as indicated in the Tables 1 to 5, and the activity as indicated in the Tables 1 to 5. Radiochemical purities were measured at various times (T0, T1, T4, T6) after the radiolabelled experiments have been conducted.
The kits of Example 1, Example 2 or Example 3, with amounts of ascorbic acid as set out in Table 7 were used in the experiments for the ascorbic acid bracketing matrix. Three strengths of [^68Ga]Ga-PSMA-11 will be tested, i.e. 50 mCi/ml, 7 mCi/ml and 1 mCi/ml. Radiochemical purity was determined at different time points (TO, T1, T4 or T6), as set out in Table 7.

[1] = 1 mg ascorbic acid, 58.7-71.1 mCi, 7.47-8.99 mCi/mL, GE Liquid target, average of 3, T0
[2] = 1 mg ascorbic acid, 58.7-71.1 mCi, 7.47-8.99 mCi/mL, GE Liquid target, average of 3, T4 (4 h)
[3] = 1 mg ascorbic acid, 58.7-71.1 mCi, 7.47-8.99 mCi/mL, GE Liquid target, n=3, T0
[4] = 1 mg ascorbic acid, 58.7-71.1 mCi, 7.47-8.99 mCi/mL, GE Liquid target, n=3, T4 (4 h)
[5] = 2.5 mg ascorbic acid, 49.9-76.9 mCi, 6.31-9.72 mCi/mL, GE Liquid target, average of 3, T0
[6] = 2.5 mg ascorbic acid, 49.9-76.9 mCi, 6.31-9.72 mCi/mL, GE Liquid target, average of 3, T4 (4 h)
[7] = 2.5 mg ascorbic acid, 49.9-76.9 mCi, 6.31-9.72 mCi/mL, GE Liquid target, n=3, T0
[8] = 2.5 mg ascorbic acid, 49.9-76.9 mCi, 6.31-9.72 mCi/mL, GE Liquid target, n=3, T4 (4 h)
[9] = 5 mg ascorbic acid, 60-69.9 mCi, 7.61-8.81 mCi/mL, 3 × GE Liquid Target, 3 × EZAG GalliaPharm, average of 6, T0
[10] = 5 mg ascorbic acid, 60-69.9 mCi, 7.61-8.81 mCi/mL, 3 × GE Liquid Target, 3 × EZAG GalliaPharm, average of 6, T4 (4 h)
[11] = 5 mg ascorbic acid, 60-69.9 mCi, 7.61-8.81 mCi/mL, 3 × GE Liquid Target, 3 × EZAG GalliaPharm, n=6, T0
[12] = 5 mg ascorbic acid, 60-69.9 mCi, 7.61-8.81 mCi/mL, 3 × GE Liquid Target, 3 × EZAG GalliaPharm, n=6, T4 (4 h)
[13] = 10 mg ascorbic acid, 458-500 mCi, 43.4-47.3 mCi/mL, GE Solid Target, average of 3, T0
[14] = 10 mg ascorbic acid, 458-500 mCi, 43.4-47.3 mCi/mL, GE Solid Target, average of 3, T4 (4 h)
[15] = 10 mg ascorbic acid, 458-500 mCi, 43.4-47.3 mCi/mL, GE Solid Target, n=3, T0
[16] = 10 mg ascorbic acid, 458-500 mCi, 43.4-47.3 mCi/mL, GE Solid Target, n=3, T4 (4 h)
[17] = 10 mg ascorbic acid, 514-520 mCi, 49.0-66.1 mCi/mL, GE Solid Target, average of 3, T0
[18] = 10 mg ascorbic acid, 514-520 mCi, 49.0-66.1 mCi/mL, GE Solid Target, average of 3, T6 (6 h)
[19] = 10 mg ascorbic acid, 514-520 mCi, 49.0-66.1 mCi/mL, GE Solid Target, n=3, T0
[20] = 10 mg ascorbic acid, 514-520 mCi, 49.0-66.1 mCi/mL, GE Solid Target, n=3, T6 (6 h)

O=C([O-])CN(CCN(CC(=O)[O-])Cc1cc(CCC(=O)NCCCCCC(=O)NCCCC[C@H](NC(=O)N[C@@H](CCC(=O)O)C(=O)O)C(=O)O)ccc1[O-])Cc1cc(CCC(=O)O)ccc1[O-].[68Ga+3].[OH3+] [[^68Ga]PSMA-11, gallium-68 radiolabelled Glu-urea-Lys-HBED-CC (gozetotide or PSMA-11)]
C (C = conforms to specifications): Radiochemical Purity (iTLC) Free and Colloidal Ga-68 (%) [3] | Radiochemical Purity (iTLC) Ga-68 PSMA-11 (%) [3] | Radiochemical Purity (iTLC) Free and Colloidal Ga-68 (%) [4] | Radiochemical Purity (iTLC) Ga-68 PSMA-11 (%) [4] | Radiochemical Purity (iTLC) Free and Colloidal Ga-68 (%) [7] | Radiochemical Purity (iTLC) Ga-68 PSMA-11 (%) [7] | Radiochemical Purity (iTLC) Free and Colloidal Ga-68 (%) [8] | Radiochemical Purity (iTLC) Ga-68 PSMA-11 (%) [8] | Radiochemical Purity (iTLC) Free and Colloidal Ga-68 (%) [11] | Radiochemical Purity (iTLC) Ga-68 PSMA-11 (%) [11] | Radiochemical Purity (iTLC) Free and Colloidal Ga-68 (%) [12] | Radiochemical Purity (iTLC) Ga-68 PSMA-11 (%) [12] | Radiochemical Purity (iTLC) Free and Colloidal Ga-68 (%) [15] | Radiochemical Purity (iTLC) Ga-68 PSMA-11 (%) [15] | Radiochemical Purity (iTLC) Free and Colloidal Ga-68 (%) [16] | Radiochemical Purity (iTLC) Ga-68 PSMA-11 (%) [16] | Radiochemical Purity (iTLC) Free and Colloidal Ga-68 (%) [19] | Radiochemical Purity (iTLC) Ga-68 PSMA-11 (%) [19] | Radiochemical Purity (iTLC) Free and Colloidal Ga-68 (%) [20] | Radiochemical Purity (iTLC) Ga-68 PSMA-11 (%) [20]
0%: Radiochemical Purity (iTLC) Free and Colloidal Ga-68 (%) [1] | Radiochemical Purity (iTLC) Free and Colloidal Ga-68 (%) [2] | Radiochemical Purity (iTLC) Free and Colloidal Ga-68 (%) [5] | Radiochemical Purity (iTLC) Free and Colloidal Ga-68 (%) [6] | Radiochemical Purity (iTLC) Free and Colloidal Ga-68 (%) [9] | Radiochemical Purity (iTLC) Free and Colloidal Ga-68 (%) [10] | Radiochemical Purity (iTLC) Free and Colloidal Ga-68 (%) [13] | Radiochemical Purity (iTLC) Free and Colloidal Ga-68 (%) [14] | Radiochemical Purity (iTLC) Free and Colloidal Ga-68 (%) [17] | Radiochemical Purity (iTLC) Free and Colloidal Ga-68 (%) [18] | Radiochemical Purity (iTLC) Free and Colloidal Ga-68 (%) (15 mg ascorbic acid, 10.0-18.4 mCi, 0.95-1.77 mCi/mL, 1 × EZAG GalliaPharm, 2 × IRE Galli Eo, average of 3, T0)
100%: Radiochemical Purity (iTLC) Ga-68 PSMA-11 (%) [1] | Radiochemical Purity (iTLC) Ga-68 PSMA-11 (%) [2] | Radiochemical Purity (iTLC) Ga-68 PSMA-11 (%) [5] | Radiochemical Purity (iTLC) Ga-68 PSMA-11 (%) [6] | Radiochemical Purity (iTLC) Ga-68 PSMA-11 (%) [9] | Radiochemical Purity (iTLC) Ga-68 PSMA-11 (%) [10] | Radiochemical Purity (iTLC) Ga-68 PSMA-11 (%) [13] | Radiochemical Purity (iTLC) Ga-68 PSMA-11 (%) [14] | Radiochemical Purity (iTLC) Ga-68 PSMA-11 (%) [17] | Radiochemical Purity (iTLC) Ga-68 PSMA-11 (%) [18]
